Data set [1] concerns P-gp expressing HCT-15 cells. The data set can be described thus: Sensitization of HCT-15 cells to doxorubicin (co-treatment, cell viability). It is filed as cell-based, human. On the procedure: (§1) Cytotoxic activity of test compounds was analyzed after 48 h using the CellTiter-Glo Luminescent Cell Viability Assay published previously ([Weber et al., 2017]) in 384-well plates with the following cell densities: A549, MCF-7/MX: 2 × 10^3 cells/well; HCT-15: 3 × 10^3 cells/well; H69AR: 5 × 10^3 cells/well. Pipetting was conducted with the CyBi-Well 96-channel simultaneous pipettor (Analytik Jena AG, Jena, Germany). For generation of dose-response curves and calculation of IC50 values, the four-parameter logistic model was applied.
(§2) The ability of identified inhibitors of P-gp and BCRP to sensitize HCT-15 or MCF-7/MX cells to chemotherapy was analyzed by co-treatment with test compounds and doxorubicin or mitoxantrone, respectively. Cells were incubated with a serial dilution of the chemotherapeutic drug alone or in combination with fixed concentrations of the test compounds or positive controls (2.5 μM PSC833 and 1 μM Ko143, respectively). Fold change of drug IC50 was calculated with the formula IC50 (drug alone)/IC50 (drug with modulator).

Data set [2] relates to BCRP-expressing MCF-7/MX cells. The data set can be described thus: Sensitization of MCF-7/MX cells to mitoxantrone (co-treatment, cell viability). It counts as cell-based, human. On the procedure:
as §1, §2

In the next data set the test system is HCT-15 cells. The data set can be described thus: CellTiter-Glo cell viability assay (cytotoxicity), HCT-15. It is filed as cell-based. As to conditions: Homo sapiens, 48 h, P-gp expressing, mean ± SEM. On the procedure:
(§3) The human lung adenocarcinoma cell line A549 was cultured in DMEM medium supplemented with 10% fetal bovine serum (FBS), 100 U/mL penicillin and 100 μg/mL streptomycin. P-gp-expressing human colon adenocarcinoma cells HCT-15 were cultured in RPMI 1640 medium supplemented with 10% FBS, 100 U/mL penicillin and 100 μg/mL streptomycin. BCRP-expressing MCF-7/MX human breast adenocarcinoma cells were cultured in DMEM medium supplemented with 10% FBS, 100 U/mL penicillin and 100 μg/mL streptomycin. MRP1-expressing H69AR human small cell lung cancer cells were cultured in RPMI 1640 medium (ATCC modification) supplemented with 20% FBS, 100 U/mL penicillin and 100 μg/mL streptomycin. All cancer cell lines employed have been systematically characterized regarding their respective ABC transporter expression profile ([Sachs et al., 2019]).
as §1

Another data set concerns MCF-7/MX cells. The data set can be described thus: CellTiter-Glo cell viability assay (cytotoxicity), MCF-7/MX. It is filed as cell-based. The following applies: Homo sapiens, MCF7/MX; 48 h, BCRP-expressing, mean ± SEM. On the procedure:
as §3, §1
(In general: ATP-based viability assays read luminescence as a measure of living cells.)

A further data set addresses T1, BCRP (Homo sapiens, UniProt Q9UNQ0).
T1 construct: endogenous in cells; host or cells: MCF-7/MX human breast adenocarcinoma cells (mitoxantrone-selected)
T1 sequence (Q9UNQ0 1-655): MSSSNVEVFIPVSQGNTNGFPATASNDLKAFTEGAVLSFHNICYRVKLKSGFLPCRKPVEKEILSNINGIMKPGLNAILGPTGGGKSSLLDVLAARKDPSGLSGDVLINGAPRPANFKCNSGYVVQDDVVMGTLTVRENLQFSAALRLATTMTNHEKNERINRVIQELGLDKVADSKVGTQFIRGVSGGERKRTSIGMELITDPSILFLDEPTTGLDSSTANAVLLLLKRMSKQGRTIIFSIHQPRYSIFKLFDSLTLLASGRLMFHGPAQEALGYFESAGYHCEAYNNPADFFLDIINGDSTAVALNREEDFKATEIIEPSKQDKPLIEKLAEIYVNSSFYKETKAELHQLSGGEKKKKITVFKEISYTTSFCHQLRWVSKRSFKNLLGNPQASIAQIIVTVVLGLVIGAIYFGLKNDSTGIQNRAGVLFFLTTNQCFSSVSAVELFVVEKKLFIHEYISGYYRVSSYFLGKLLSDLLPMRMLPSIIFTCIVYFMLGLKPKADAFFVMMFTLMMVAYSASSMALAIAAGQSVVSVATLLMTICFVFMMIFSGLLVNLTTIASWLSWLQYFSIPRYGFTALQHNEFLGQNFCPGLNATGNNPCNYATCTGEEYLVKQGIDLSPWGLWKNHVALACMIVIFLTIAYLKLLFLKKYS
The data set can be described thus: BCRP transport assay (Hoechst 33342) in MCF-7/MX cells. It is filed as cell-based. On the procedure: Breast cancer resistance protein transport activity was determined in the BCRP-expressing MCF-7/MX cell line. Hoechst 33342 was applied as transporter substrate and 1 μM Ko143 as positive control or 0.5% DMSO as negative control and the assay was performed according to the P-gp assay. Fluorescence was measured at an excitation wavelength of 355 nm and emission wavelength of 460 nm. The transport activity of BCRP was analyzed by determining the plateau of the fluorescence-time curve by using non-linear regression (one-phase exponential fit). Normalization of the data to Ko143 (100% inhibition) and DMSO (0% inhibition) was performed.

A further data set relates to A549 cells. The data set can be described thus: CellTiter-Glo cell viability assay (cytotoxicity), A549. It is filed as cell-based, human. As to conditions: Homo sapiens, A549; 48 h, mean ± SEM. On the procedure:
as §3, §1

For the next data set, the target named is T2, Pdr5 (Saccharomyces cerevisiae, UniProt P33302).
T2 construct: effect on (A) the transport activity of Pdr5 WT and (B) their effect on the ATPase activity; made in house; host or cells: S. cerevisiae YRE1001 (pdr1-3 background), isolated plasma membranes
The data set can be described thus: Pdr5 ATPase assay (oligomycin-sensitive) in plasma membrane preparations. It counts as biochemical. As to conditions: highest concentrations (10 mM), in comparison to Pdr5 WT in the absence of any compound. On the procedure: Saccharomyces cerevisiae cells expressing Pdr5 WT or the E1036Q (EQ) mutant were cultured to an OD600 of 1.5 in YPD-media at 25°C. The nitrogen source was replenished by addition of a 10th volume of 5x YP (50 g/l yeast extract, 100 g/l peptone). The cells were grown to an OD of 3.5 and harvested (5000 ×g at 4°C for 15 min). The isolation of Pdr5 containing PMs was performed as described ([Kolaczkowski et al., 1996]; [Ernst et al., 2008]).
Oligomycin (OM)-sensitive ATPase activity was measured from 0.8 μg PM containing Pdr5 incubated with 2 mM ATP, 5 mM MgCl2 in 270 mM TRIS-glycine buffer (pH 9.5) and 2.5 μl of the test compounds or DMSO as a control in a total volume of 100 μl. To reduce the background activities, 0.2 mM ammonium molybdate, 10 mM NaN3 and 50 mM KNO3, respectively, were added ([Dufour et al., 1988]; [Goffeau and Dufour, 1988]). In a second assay, OM (20 μg/ml) was added to an otherwise identical setup. After incubation at 30°C for 20 min, the reaction was stopped by adding 25 μl of the reaction to 175 μl 40 mM H2SO4. The amount of released inorganic phosphate was determined by a colometric assay in 96-well plates ([Goffeau and Dufour, 1988]; [Decottignies et al., 1994]; [Wada et al., 2002]). The difference of both assays ( ± OM) corresponds to the specific ATPase activity of Pdr5 ([Ernst et al., 2008]).

Data set [3] can be described thus: Solubility observation in transporter assays. As to conditions: could not be employed at 50 μM. It is filed as physicochemical.
In the next data set the test system is H69AR cells. The data set can be described thus: CellTiter-Glo cell viability assay (cytotoxicity), H69AR. It is filed as cell-based. The following applies: Homo sapiens, 48 h, MRP1-expressing, mean ± SEM. On the procedure: as §3, §1
In the next data set the target is T3, P-gp (Homo sapiens, UniProt P08183).
T3 construct: endogenous in cells; host or cells: HCT-15 human colon adenocarcinoma cells
The data set can be described thus: P-gp transport assay (calcein-AM) in HCT-15 cells. It is filed as cell-based. On the procedure: The transport of calcein-AM by P-gp and its modulation by test compounds was analyzed in the P-gp-expressing HCT-15 cell line. 5 × 10^4 cells were seeded in black 96-well plates and incubated at 37°C and 5% CO2 for 24 h. The culture medium was removed and replaced by Hank’s balanced salt solution supplemented with 10 mM HEPES. Test compounds, 2.5 μM PSC833 (positive control) or 0.5% DMSO (negative control) were added in triplicates and incubated for 30 min at 37°C and 5% CO2. The substrate calcein-AM was added (final concentration 0.5 μM) and the fluorescence (excitation 485 nm, emission 520 nm) was measured over 3 h with the Infinite m1000 pro microplate reader (Tecan Group AG, Männedorf, Switzerland) at 37°C. The transport activity of P-gp was analyzed by determining the slope of the linear part of the fluorescence-time curve (0–30 min) using linear regression. Normalization of the data to PSC833 (100% inhibition) and DMSO (0% inhibition) was performed.

A value given as a limit tells only on which side of the number the result lay.

We go through three compounds from PMC6476959, “Novel 3,4-Dihydroisocoumarins Inhibit Human P-gp and BCRP in Multidrug Resistant Tumors and Demonstrate Substrate Inhibition of Yeast Pdr5” (Frontiers in Pharmacology, 2019).

T2 sequence (P33302 whole entry): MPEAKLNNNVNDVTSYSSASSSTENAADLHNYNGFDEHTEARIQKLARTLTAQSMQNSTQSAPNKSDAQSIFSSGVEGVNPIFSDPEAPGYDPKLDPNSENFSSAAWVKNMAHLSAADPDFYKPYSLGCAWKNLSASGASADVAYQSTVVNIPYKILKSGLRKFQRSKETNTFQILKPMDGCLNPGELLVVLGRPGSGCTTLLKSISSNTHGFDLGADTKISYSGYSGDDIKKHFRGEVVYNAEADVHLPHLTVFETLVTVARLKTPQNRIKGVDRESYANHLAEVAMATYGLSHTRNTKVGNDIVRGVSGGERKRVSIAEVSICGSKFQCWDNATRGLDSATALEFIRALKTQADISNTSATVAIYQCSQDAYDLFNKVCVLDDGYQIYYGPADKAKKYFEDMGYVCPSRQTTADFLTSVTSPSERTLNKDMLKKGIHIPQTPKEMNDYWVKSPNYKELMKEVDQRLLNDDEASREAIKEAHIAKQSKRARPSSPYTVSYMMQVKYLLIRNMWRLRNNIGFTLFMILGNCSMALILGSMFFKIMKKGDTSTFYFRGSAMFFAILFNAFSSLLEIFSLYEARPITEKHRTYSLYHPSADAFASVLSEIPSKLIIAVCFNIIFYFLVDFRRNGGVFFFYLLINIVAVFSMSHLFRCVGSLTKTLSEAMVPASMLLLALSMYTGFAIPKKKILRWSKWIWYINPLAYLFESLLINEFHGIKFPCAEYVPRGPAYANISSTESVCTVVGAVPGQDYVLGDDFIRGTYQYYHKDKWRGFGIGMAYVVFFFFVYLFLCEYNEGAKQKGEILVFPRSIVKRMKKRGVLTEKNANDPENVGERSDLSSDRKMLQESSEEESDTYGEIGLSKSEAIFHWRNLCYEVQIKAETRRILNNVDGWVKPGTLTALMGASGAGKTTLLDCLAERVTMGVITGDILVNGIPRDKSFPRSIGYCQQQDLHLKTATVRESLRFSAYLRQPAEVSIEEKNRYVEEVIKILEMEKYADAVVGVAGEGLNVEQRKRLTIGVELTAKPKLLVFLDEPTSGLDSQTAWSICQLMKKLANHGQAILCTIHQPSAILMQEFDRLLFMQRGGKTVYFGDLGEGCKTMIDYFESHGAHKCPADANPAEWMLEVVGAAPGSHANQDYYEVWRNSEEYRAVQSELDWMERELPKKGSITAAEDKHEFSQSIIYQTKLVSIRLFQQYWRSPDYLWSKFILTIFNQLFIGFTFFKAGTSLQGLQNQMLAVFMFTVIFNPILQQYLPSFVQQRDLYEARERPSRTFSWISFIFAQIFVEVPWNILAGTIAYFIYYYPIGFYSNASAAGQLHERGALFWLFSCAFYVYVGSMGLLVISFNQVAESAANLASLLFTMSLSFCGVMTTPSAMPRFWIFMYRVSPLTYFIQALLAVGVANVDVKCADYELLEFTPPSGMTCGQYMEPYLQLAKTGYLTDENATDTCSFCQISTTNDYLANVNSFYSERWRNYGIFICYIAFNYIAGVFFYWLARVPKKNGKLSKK
T3 sequence (P08183 whole entry): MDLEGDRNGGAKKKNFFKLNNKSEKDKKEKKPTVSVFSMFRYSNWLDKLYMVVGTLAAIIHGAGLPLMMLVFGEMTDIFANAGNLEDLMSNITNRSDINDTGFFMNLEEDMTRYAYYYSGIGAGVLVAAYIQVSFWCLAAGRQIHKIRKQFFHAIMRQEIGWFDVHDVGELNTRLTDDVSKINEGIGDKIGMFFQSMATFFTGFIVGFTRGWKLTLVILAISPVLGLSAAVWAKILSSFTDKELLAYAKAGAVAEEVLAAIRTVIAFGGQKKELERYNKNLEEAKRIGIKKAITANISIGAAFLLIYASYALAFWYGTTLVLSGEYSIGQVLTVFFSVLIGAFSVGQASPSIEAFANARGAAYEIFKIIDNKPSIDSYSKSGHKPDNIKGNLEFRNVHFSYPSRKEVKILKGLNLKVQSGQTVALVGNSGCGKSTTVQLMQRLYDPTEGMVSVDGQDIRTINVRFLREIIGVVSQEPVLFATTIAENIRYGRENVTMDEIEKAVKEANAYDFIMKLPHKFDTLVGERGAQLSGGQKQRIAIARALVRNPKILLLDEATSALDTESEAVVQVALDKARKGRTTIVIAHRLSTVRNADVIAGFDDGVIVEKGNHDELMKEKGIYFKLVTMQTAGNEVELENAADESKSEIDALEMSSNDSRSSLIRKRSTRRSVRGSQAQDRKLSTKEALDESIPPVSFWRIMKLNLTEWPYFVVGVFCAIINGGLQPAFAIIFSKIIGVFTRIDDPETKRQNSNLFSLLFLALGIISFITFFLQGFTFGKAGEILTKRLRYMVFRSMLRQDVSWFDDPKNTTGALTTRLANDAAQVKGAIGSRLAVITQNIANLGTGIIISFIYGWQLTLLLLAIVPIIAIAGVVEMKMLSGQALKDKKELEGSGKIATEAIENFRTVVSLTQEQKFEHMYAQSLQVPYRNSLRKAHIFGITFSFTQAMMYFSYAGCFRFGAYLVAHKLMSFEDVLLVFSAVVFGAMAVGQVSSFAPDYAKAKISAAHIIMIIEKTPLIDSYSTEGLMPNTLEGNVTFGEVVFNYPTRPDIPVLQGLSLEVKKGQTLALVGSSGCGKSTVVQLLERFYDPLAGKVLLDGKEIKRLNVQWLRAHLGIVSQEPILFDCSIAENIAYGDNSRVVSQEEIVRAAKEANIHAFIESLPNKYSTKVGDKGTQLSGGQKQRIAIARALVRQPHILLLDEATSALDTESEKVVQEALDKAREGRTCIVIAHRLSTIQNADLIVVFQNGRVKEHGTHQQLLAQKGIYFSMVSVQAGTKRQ

A word on the IC50: it is the concentration that gives 50% inhibition. As to `COc1cccc2c1C(=O)c1c(O)c3c(c(O)c1C2=O)C[C@@](O)(C(=O)CO)C[C@@H]3O[C@H]1C[C@H](N)[C@H](O)[C@H](C)O1` [Doxorubicin, doxorubicin, reference compound], the IC50 in [1] (Homo sapiens, HCT-15, doxorubicin alone, 48 h) was 8.5 ± 0.7 µM. The “Fold change of doxorubicin IC50” value in [1] (doxorubicin alone (reference)) amounted to 1.00.

Regarding `O=C1c2c(O)ccc(O)c2C(=O)c2c(NCCNCCO)ccc(NCCNCCO)c21` [Mitoxantrone, mitoxantrone, reference compound], in data set [2] (Homo sapiens, MCF7/MX, mitoxantrone alone, 48 h), the IC50 turned out to be 19.6 ± 2.4 µM. Besides, in [2] (mitoxantrone alone (reference)), the “Fold change of mitoxantrone IC50” value is 1.00.

As to `O=c1oc2c(O)c(O)cc3c(=O)oc4c(O)c(O)cc1c4c23` [Ellagic acid, ellagic acid], the IC50 in the data set with HCT-15 cells, in the data set on MCF-7/MX cells, with A549 cells and with H69AR cells was above 50 µM each time. Further, the “Inhibition of BCRP (in words)” value at BCRP was “did not display any inhibitory activity”. The entries for the “ATPase activity of Pdr5 WT inhibited to (initial screen)” value at Pdr5 and at Pdr5 (listed as ellagic acid) were 56% and 50%, respectively. The “Solubility (in words)” value in [3] is reported as “low solubility”. Moreover, the “Inhibition of P-gp (in words)” value on P-gp was “did not display any inhibitory activity”.
